Test results from patent publication US8686224B2, “Plant defense signal peptides” (priority 2005, dated 2014).
pKd: −log10 of the molar value.

Experiments:
AtPEPR1 = target: T1, AtPEPR1 (Arabidopsis thaliana, UniProt Q9SSL9); assay: Photoaffinity labeling of transgenic tobacco cells expressing AtPEPR1; format: binding; conditions: 50 nM unlabeled competitor, 0.25 nM label
T1 construct: Tobacco cells were transformed with a CaMV-35S-AtPEPR1 gene; expressed in transfected cells; host or cells: tobacco suspension-cultured cells (Agrobacterium-mediated, CaMV 35S promoter)
T1 sequence (Q9SSL9 29-1123): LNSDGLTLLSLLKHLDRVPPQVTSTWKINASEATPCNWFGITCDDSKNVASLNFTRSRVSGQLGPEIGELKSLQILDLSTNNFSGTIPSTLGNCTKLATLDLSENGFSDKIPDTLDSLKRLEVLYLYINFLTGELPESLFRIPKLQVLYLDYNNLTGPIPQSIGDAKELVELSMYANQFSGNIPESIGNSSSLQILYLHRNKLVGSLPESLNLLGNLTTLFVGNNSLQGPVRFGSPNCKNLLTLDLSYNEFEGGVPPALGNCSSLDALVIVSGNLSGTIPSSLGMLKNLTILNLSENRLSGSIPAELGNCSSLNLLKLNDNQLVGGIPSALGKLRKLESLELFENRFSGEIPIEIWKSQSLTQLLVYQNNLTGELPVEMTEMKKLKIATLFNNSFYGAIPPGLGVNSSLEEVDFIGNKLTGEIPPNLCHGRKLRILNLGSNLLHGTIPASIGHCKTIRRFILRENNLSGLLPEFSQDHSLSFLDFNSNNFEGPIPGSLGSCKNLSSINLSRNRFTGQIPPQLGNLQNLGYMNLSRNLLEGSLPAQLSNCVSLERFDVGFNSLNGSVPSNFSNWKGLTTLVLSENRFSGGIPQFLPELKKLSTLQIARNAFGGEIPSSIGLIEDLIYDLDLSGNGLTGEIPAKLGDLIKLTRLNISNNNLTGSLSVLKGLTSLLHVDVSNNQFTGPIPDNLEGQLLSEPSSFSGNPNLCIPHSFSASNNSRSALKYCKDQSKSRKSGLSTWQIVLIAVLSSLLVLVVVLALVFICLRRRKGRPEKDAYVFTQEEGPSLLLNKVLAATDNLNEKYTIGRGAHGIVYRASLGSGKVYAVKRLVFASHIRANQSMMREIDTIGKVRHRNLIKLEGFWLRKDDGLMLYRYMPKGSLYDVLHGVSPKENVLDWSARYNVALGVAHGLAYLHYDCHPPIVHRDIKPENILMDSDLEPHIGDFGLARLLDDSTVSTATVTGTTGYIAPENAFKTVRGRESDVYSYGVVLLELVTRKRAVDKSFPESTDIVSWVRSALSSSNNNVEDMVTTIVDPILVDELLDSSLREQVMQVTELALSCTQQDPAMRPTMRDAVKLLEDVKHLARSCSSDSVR
Procedure: For final confirmation, a photoaffinity-labeling experiment was performed using the transgenic tobacco cells. The transgenic cells were incubated with 0.25 nM ^125I1-azido-Cys-AtPep1 (Yamaguchi et al., Proc. Natl. Acad. Sci. USA 103: 10104-10109, 2006) and irradiated with UV-B to cross-link the AtPep1-binding proteins. After separation of extracted proteins by SDS-PAGE, the labeled proteins were detected on X-ray film. […] Since no specific labeling was detected in wild type tobacco and GUS expressing cells, the proteins labeled specifically by ^125I1-azido-Cys-AtPep1 in AtPEPR1 and AtPEPR2 expressing cells were products from the AtPEPR1 and AtPEPR2 genes.

[1] = target: T2, AtPep1 receptor (At1g73080, AtPEPR1) (Arabidopsis thaliana, UniProt Q9SSL9); assay: Binding assay of 125I1-Tyr-AtPep1 with Arabidopsis suspension cultured cells
T2 sequence (Q9SSL9 29-1123): T1 sequence (Q9SSL9 29-1123)

[2] = target: T3, 180 kD AtPep1-binding protein (AtPep1 receptor, At1g73080) (Arabidopsis thaliana, UniProt Q9SSL9); assay: Photoaffinity labeling with 125I-azido-Cys-AtPep1, competition; conditions: microsomal membranes of wild type and control SALK plants, preincubated with 2.5 nM AtPep1
T3 construct: endogenous in cells
T3 sequence (Q9SSL9 29-1123): T1 sequence (Q9SSL9 29-1123)
Procedure: Photoaffinity labeling. To 1 mL of cultured cells in darkness was added ^125I-azido-Cys-AtPep1 (0.25 nM final concentration as described above) and the cells were shaken for 10 min on an orbital shaker (160 rpm) at room temperature. The cells were transferred to a 1.5 mL glass tube, centrifuged at 10,000×g and the sedimented cells were dispersed in 1 mL cold MS medium containing 3% sucrose and centrifuged as above. This wash was repeated twice. The cells were resuspended in 1 mL MS medium and irradiated with UV-B for 10 min on ice to photoactivate the azido group to effect the crosslinking. The cells were washed with 1 mL MS medium, centrifuged as above, and resuspended in 400 μL of 5% SDS. The cells were disrupted by boiling for 30 min, and the insoluble debris was removed by centrifugation at 10,000×g. Proteins in the clear supernatant were precipitated by adding 1.25 volumes of methanol/chloroform (vol/vol). […]
Microsomal fractions were prepared from one-month-old plants by differential centrifugation as previously described (Scheer and Ryan, Proc. Natl. Acad. Sci. 99:9585-9590, 2002). […] The membranes were incubated for 60 min at approximately 4° C., irradiated with UV-B for 15 min, separated by SDS-PAGE, dried and analyzed by radioautography to identify labeled proteins.

With H-ATKVKAKQRGKEKVSSGRPGQHN-OH [AtPep1] the “labeling of the 170 kDa protein by 125I1-azido-Cys-AtPep1 with competitor” value (AtPEPR1) was “not in the cells incubated with 50 nM unlabeled AtPep1”, the pKd [1] was 9.60 and the “photoaffinity labeled proteins after preincubation” value [2] was “absent”.
